# Columns and labels:
# [1] = Pilot trial on three hairless rats, blood samples after topical delivery system; type: in vivo, hairless rat
# Procedure: A pilot trial is performed on three hairless rats, during which a baseline blood sample is drawn, then 1 ml of the topical delivery system containing a titrated dose of each of the three test drugs is administered to each of the rats. Samples are harvested at 30 and 60 minutes.
# [2] = Laboratory solubilization of amitriptyline in the modified stock delivery system; type: physicochemical; conditions: modified SDS; predicted amount within experimental error of the actual amount
# Source text: The following Table 4 illustrates how the balancing of molar van der Waals forces can be utilized as a predictor of the solubilization of amitriptyline in the stock delivery system. In this case the calculations for balancing molar van der Waals forces were made first using the Chem3D software and the solutions were thereafter formulated in the laboratory. The amount predicted to dissolve, 2.08 gm per 100 c.c., was within experimental error of the actual amount which would dissolve in the laboratory experiment. In this case, the system was balanced by increasing the amounts of methylsulfonylmethane and ethanol and decreasing the amount of propylene glycol.
# [3] = type: physicochemical
# Source text: The following tables are typical data sheets generated by the Chem3D software. These charts confirm the independent experimental solubility data and also, in Tables 1-3, show how modulation of the carrier system allows a higher dose of the test medicament, Diosgenin (MW=414.61).
# It is pointed out, however, that the formulations shown in the following Tables, and which are based on the above described Stock Delivery System, were originally prepared without benefit of the use of the Chem 3D software and included omission of several different modifiers. Modifications to the SDS to effect solubilization and increase solute solvent ratios were made by the inventor on the basis of knowledge of how and where the solute (drug) works in the body and using this information to make intuitive predictions of how the solute would interact with the surrounding molecules of the SDS, such as induced polarities relative to other molecules; induction of electric fields due to influence of surrounding molecules; hydrophobic versus hydrophilic properties, etc., while always taking into consideration the desired functional effects contributed by each ingredient. […]
# [4] = Full-scale protocol trial on 15 hairless rats; conditions: topical
# Procedure: Samples for the morphine and acyclovir groups are taken at 30 minutes, 60 minutes and 120 minutes.
# [5] = tested on: air pouch granulomas; test: Murine Chronic Granulomatous Air-Pouch Model; type: in vivo, mouse; conditions: normally sub-effective dose (30 mg/kg); decrease in dry weight of the granuloma
# Source text: This example describes the results of an animal (mouse) study performed at St. Bartholomew's and The Royal London School of Medicine and Dentistry, Department of Experimental Pathology, to establish the efficacy of the topical delivery system, based on the Stock Delivery System of this invention for transdermal delivery of Cystamine (2,2′-dithiobisethanamine). A Murine Chronic Granulomatous Air-Pouch Model was used for evaluation of the delivery of the drug with SDS versus a control vehicle alone; control vehicle plus drug; and SDS alone.
# In this study, 1 milligram (mg) of cystamine was added to 0.5 cc of Standard Stock Solution (SDS) as previously described, or to a control vehicle (aqueous isopropanol). In each case, the active ingredient (cystamine) was administered in an amount of 30 mg per kilogram of body weight.
# Mice (TO or BALB/c, for hormone studies, 30±5 g) were lightly anaesthetized with halothane. Three milliliters of air were injected subcutaneously into the scruff of the neck using a 25 G needle. The shape of the air pouch was controlled by manipulation during inflation. […]
# Vascularity was assessed by a modified form (see Kimura et al, [need citation] 1986) of the Carmine Red Vascular Casting technique. […] The dye content was measured spectrophotometrically at 490 nm against a standard curve of dye from 1-100 μg/ml. […]
structure (smiles),measurement,setting,value
Nc1nc2c(ncn2COCCO)c(=O)[nH]1 [Acyclovir],"blood sample level, Baseline","[1]; hairless, rat, in vivo",0
CN(C)CCC=C1c2ccccc2CCc2ccccc21 [Amitriptyline],actual amount which would dissolve in the laboratory experiment,[2],~2.08 gm per 100 c.c.
"C[C@@H]1CC[C@@]2(OC1)O[C@H]1C[C@H]3[C@@H]4CC=C5C[C@@H](O)CC[C@]5(C)[C@H]4CC[C@]3(C)[C@H]1[C@@H]2C [Diosgenin, (25R)-Spirost-5-en-3β-ol]",increase of solubilized dose,[3],~5 fold
C[C@]12CC[C@H]3[C@@H](CCC4=CC(=O)CC[C@@]43C)[C@@H]1CC[C@@H]2O [Testosterone],"blood sample level, 30 minutes","[1]; testosterone 5 mg in 1 ml, topical","1,552 ng/dl"
same,increase of testosterone levels,"[4]; in one hour, 5 mg in 1 ml",10 fold
"NCCSSCCN [cystamine, 2,2′-dithiobisethanamine]",efficacy of the dose when delivered with SDS,[5],effective dose
CN1CC[C@]23c4c5ccc(O)c4O[C@H]2[C@@H](O)C=C[C@H]3[C@H]1C5.O=S(=O)(O)O [morphine sulfate],"blood sample level, Baseline",[1]; before 1 ml of the topical delivery system,0
same,"blood sample level, 60 minutes","[1]; morphine 2.5 mg in 1 ml, topical",45 nmol/L
same,blood levels compared with intravenous dosing,[4]; 2.5 mg dose of morphine,equivalent to a 10 mg IV dose
